# Experimental data published in ChEMBL document CHEMBL6078713, “Synthesis and mechanistic studies of 4-aminoquinoline-Isatin molecular hybrids and Schiff's bases as promising antimicrobial agents” (Eur J Med Chem, 2025).
# The source made the active and inactive calls. No cut-off for these calls is given here.
# What was measured:
# Staphylococcus aureus [1] = assay: Antibacterial activity against Staphylococcus aureus MTCC 902 assessed as diameter of zone of inhibition at 0.5 times MIC incubated overnight by disk diffusion method; type: functional
# Enterococcus faecalis [2] = assay: Antibacterial activity against Enterococcus faecalis MTCC 439 assessed as diameter of zone of inhibition at MIC incubated overnight by disk diffusion method; type: functional
# Enterococcus faecalis [3] = assay: Antibacterial activity against Enterococcus faecalis MTCC 439 assessed as inhibition of bacterial growth incubated overnight by serial dilution based spectrophotometer; type: functional
# Salmonella typhi [4] = assay: Antibacterial activity against Salmonella typhi assessed as inhibition of bacterial growth incubated overnight by serial dilution based spectrophotometer; type: functional, Salmonella enterica subsp. enterica serovar Typhi; conditions: Salmonella enterica
# Staphylococcus aureus [5] = assay: Bacteriostatic activity against Staphylococcus aureus MTCC 902 assessed as lag phase of bacterial growth at 1 times MIC measured upto 24 hrs by absorbance based assay; type: functional, organism-based
# Pseudomonas aeruginosa [6] = assay: Synergistic antibacterial activity against Pseudomonas aeruginosa MTCC 2453 assessed as fractional inhibitory concentration index incubated overnight in presence of ciprofloxacin by microdilution checkerboard assay; type: functional
# Escherichia coli [7] = assay: Bacteriostatic activity against Escherichia coli MTCC 443 assessed as reduction in log phase of bacterial growth at 0.5 to 1 times MIC measured upto 24 hrs by absorbance based assay; type: functional, organism-based
# Enterococcus faecalis [8] = assay: Antibacterial activity against Enterococcus faecalis MTCC 439 assessed as diameter of zone of inhibition at 0.5 times MIC incubated overnight by disk diffusion method; type: functional
# Escherichia coli [9] = assay: Antibacterial activity against Escherichia coli MTCC 443 assessed as diameter of zone of inhibition at 0.5 times MIC incubated overnight by disk diffusion method; type: functional
# Pseudomonas aeruginosa [10] = assay: Antibacterial activity against Pseudomonas aeruginosa MTCC 2453 assessed as diameter of zone of inhibition at 2 times MIC incubated overnight by disk diffusion method; type: functional
# Pseudomonas aeruginosa [11] = assay: Antibacterial activity against Pseudomonas aeruginosa MTCC 2453 assessed as diameter of zone of inhibition at MIC incubated overnight by disk diffusion method; type: functional
# Escherichia coli [12] = assay: Bacteriostatic activity against Escherichia coli MTCC 443 assessed as reduction in bacterial growth at 2 times MIC measured upto 10 hrs by absorbance based assay; type: functional, organism-based
# Escherichia coli [13] = assay: Bactericidal activity against Escherichia coli MTCC 443 assessed as inhibition of bacterial growth incubated overnight; type: functional
# Escherichia coli [14] = assay: Antibacterial activity against Escherichia coli MTCC 443 assessed as inhibition of bacterial growth incubated overnight by serial dilution based spectrophotometer; type: functional
# Salmonella typhi [15] = assay: Antibacterial activity against Salmonella typhi assessed as diameter of zone of inhibition at MIC incubated overnight by disk diffusion method; type: functional, Salmonella enterica subsp. enterica serovar Typhi
# Bacillus subtilis [16] = assay: Antibacterial activity against Bacillus subtilis MTCC 736 assessed as diameter of zone of inhibition at 2 times MIC incubated overnight by disk diffusion method; type: functional
# Bacillus subtilis [17] = assay: Antibacterial activity against Bacillus subtilis MTCC 736 assessed as diameter of zone of inhibition at MIC incubated overnight by disk diffusion method; type: functional
# Staphylococcus aureus [18] = assay: Antibacterial activity against Staphylococcus aureus MTCC 902 assessed as inhibition of bacterial growth incubated overnight by serial dilution based spectrophotometer; type: functional
# Staphylococcus aureus [19] = assay: Antibacterial activity against Staphylococcus aureus MTCC 902 assessed as diameter of zone of inhibition at MIC incubated overnight by disk diffusion method; type: functional
# Pseudomonas aeruginosa [20] = assay: Ratio of MBC for antibacterial activity against Pseudomonas aeruginosa MTCC 2453 to MIC for bactericidal activity against Pseudomonas aeruginosa MTCC 2453; type: functional
# Bacillus subtilis [21] = assay: Antibacterial activity against Bacillus subtilis MTCC 736 assessed as inhibition of bacterial growth incubated overnight by serial dilution based spectrophotometer; type: functional
# Staphylococcus aureus [22] = assay: Bacteriostatic activity against Staphylococcus aureus MTCC 902 assessed as lag phase of bacterial growth at 0.5 times MIC measured upto 24 hrs by absorbance based assay; type: functional, organism-based
# Escherichia coli [23] = assay: Antibacterial activity against Escherichia coli MTCC 443 assessed as diameter of zone of inhibition at 2 times MIC incubated overnight by disk diffusion method; type: functional
# Bacillus subtilis [24] = assay: Antibacterial activity against Bacillus subtilis MTCC 736 assessed as diameter of zone of inhibition at 0.5 times MIC incubated overnight by disk diffusion method; type: functional
# Bacillus subtilis [25] = assay: Antibacterial activity against Bacillus subtilis MTCC 736 assessed as diameter of zone of inhibition at 500 ug/ml by agar disk diffusion method; type: functional; conditions: read-out: DIZ
# Escherichia coli [26] = assay: Synergistic antibacterial activity against Escherichia coli MTCC 443 assessed as fractional inhibitory concentration index incubated overnight in presence of ciprofloxacin by microdilution checkerboard assay; type: functional
# Enterococcus faecalis [27] = assay: Antibacterial activity against Enterococcus faecalis MTCC 439 assessed as diameter of zone of inhibition at 2 times MIC incubated overnight by disk diffusion method; type: functional
# Staphylococcus aureus [28] = assay: Antibacterial activity against Staphylococcus aureus MTCC 902 assessed as diameter of zone of inhibition at 2 times MIC incubated overnight by disk diffusion method; type: functional
# Staphylococcus aureus [29] = assay: Antibacterial activity against Staphylococcus aureus MTCC 902 assessed as diameter of zone of inhibition at 500 ug/ml by agar disk diffusion method; type: functional; conditions: read-out: DIZ
# Pseudomonas aeruginosa [30] = assay: Antibacterial activity against Pseudomonas aeruginosa MTCC 2453 assessed as diameter of zone of inhibition at 500 ug/ml by agar disk diffusion method; type: functional; conditions: read-out: DIZ
# Bacillus subtilis [31] = assay: Synergistic antibacterial activity against Bacillus subtilis MTCC 736 assessed as fractional inhibitory concentration index incubated overnight in presence of ciprofloxacin by microdilution checkerboard assay; type: functional
# Bacillus subtilis [32] = assay: Ratio of MBC for antibacterial activity against Bacillus subtilis MTCC 736 to MIC for bactericidal activity against Bacillus subtilis MTCC 736; type: functional
# Bacillus subtilis [33] = assay: Bactericidal activity against Bacillus subtilis MTCC 736 assessed as inhibition of bacterial growth incubated overnight; type: functional
# Pseudomonas aeruginosa [34] = assay: Bactericidal activity against Pseudomonas aeruginosa MTCC 2453 assessed as inhibition of bacterial growth incubated overnight; type: functional
# Staphylococcus aureus [35] = assay: Bacteriostatic activity against Staphylococcus aureus MTCC 902 assessed as reduction in bacterial growth at 2 times MIC measured upto 10 hrs by absorbance based assay; type: functional, organism-based
# Escherichia coli [36] = assay: Antibacterial activity against Escherichia coli MTCC 443 assessed as diameter of zone of inhibition at 500 ug/ml by agar disk diffusion method; type: functional; conditions: read-out: DIZ
# Salmonella typhi [37] = assay: Antibacterial activity against Salmonella typhi assessed as diameter of zone of inhibition at 2 times MIC incubated overnight by disk diffusion method; type: functional, Salmonella enterica subsp. enterica serovar Typhi
# Pseudomonas aeruginosa [38] = assay: Antibacterial activity against Pseudomonas aeruginosa MTCC 2453 assessed as diameter of zone of inhibition at 0.5 times MIC incubated overnight by disk diffusion method; type: functional
# Escherichia coli [39] = assay: Synergistic antibacterial activity against Escherichia coli MTCC 443 assessed as inhibition of bacterial growth incubated overnight in presence of ciprofloxacin by serial dilution based spectrophotometer; type: functional
# Pseudomonas aeruginosa [40] = assay: Antibacterial activity against Pseudomonas aeruginosa MTCC 2453 assessed as inhibition of bacterial growth incubated overnight by serial dilution based spectrophotometer; type: functional
# Pseudomonas aeruginosa [41] = assay: Synergistic antibacterial activity against Pseudomonas aeruginosa MTCC 2453 assessed as inhibition of bacterial growth incubated overnight in presence of ciprofloxacin by serial dilution based spectrophotometer; type: functional
# Bacillus subtilis [42] = assay: Synergistic antibacterial activity against Bacillus subtilis MTCC 736 assessed as inhibition of bacterial growth incubated overnight in presence of ciprofloxacin by serial dilution based spectrophotometer; type: functional
# Escherichia coli [43] = assay: Antibacterial activity against Escherichia coli MTCC 443 assessed as diameter of zone of inhibition at MIC incubated overnight by disk diffusion method; type: functional
# Bacillus subtilis [44] = assay: microbe, parasite or virus in culture; conditions: MTCC 736
# Description: Synergistic antibacterial activity against Bacillus subtilis MTCC 736 assessed as inhibition of bacterial growth incubated overnight in presence of LT-SB23 by serial dilution based spectrophotometer
# Bacillus subtilis [45] = assay: microbe, parasite or virus in culture; conditions: MTCC 736; remark: listed apart in the source
# Description: Synergistic antibacterial activity against Bacillus subtilis MTCC 736 assessed as inhibition of bacterial growth incubated overnight in presence of LT-SB5 by serial dilution based spectrophotometer
# Enterococcus faecalis [46] = assay: microbe, parasite or virus in culture; conditions: MTCC 439
# Description: Synergistic antibacterial activity against Enterococcus faecalis MTCC 439 assessed as inhibition of bacterial growth incubated overnight in presence of LT-SB7 by serial dilution based spectrophotometer
# Salmonella typhi [47] = assay: Synergistic antibacterial activity against Salmonella typhi assessed as inhibition of bacterial growth incubated overnight in presence of LT-SB7 by serial dilution based spectrophotometer; conditions: Salmonella enterica
# Enterococcus faecalis [48] = assay: Antibacterial activity against Enterococcus faecalis MTCC 439 assessed as diameter of zone of inhibition at 500 ug/ml by agar disk diffusion method; type: functional; conditions: read-out: DIZ
# Staphylococcus aureus [49] = assay: Bacteriostatic activity against Staphylococcus aureus MTCC 902 assessed as reduction in bacterial growth measured upto 24 hrs by absorbance based assay; type: functional, organism-based
# Salmonella typhi [50] = assay: Synergistic antibacterial activity against Salmonella typhi assessed as inhibition of bacterial growth incubated overnight in presence of LT-SB23 by serial dilution based spectrophotometer; conditions: Salmonella enterica
# Escherichia coli [51] = assay: microbe, parasite or virus in culture; conditions: MTCC 443
# Description: Synergistic antibacterial activity against Escherichia coli MTCC 443 assessed as inhibition of bacterial growth incubated overnight in presence of SB5 by serial dilution based spectrophotometer
# Enterococcus faecalis [52] = assay: microbe, parasite or virus in culture; conditions: MTCC 439; remark: listed apart in the source
# Description: Synergistic antibacterial activity against Enterococcus faecalis MTCC 439 assessed as inhibition of bacterial growth incubated overnight in presence of LT-SB5 by serial dilution based spectrophotometer
# Enterococcus faecalis [53] = assay: microbe, parasite or virus in culture; conditions: MTCC 439; remark: listed apart in the source
# Description: Synergistic antibacterial activity against Enterococcus faecalis MTCC 439 assessed as inhibition of bacterial growth incubated overnight in presence of LT-SB23 by serial dilution based spectrophotometer
# Salmonella typhi [54] = assay: Antibacterial activity against Salmonella typhi assessed as diameter of zone of inhibition at 500 ug/ml by agar disk diffusion method; type: functional, Salmonella enterica subsp. enterica serovar Typhi; conditions: Salmonella enterica, read-out: DIZ
# Enterococcus faecalis [55] = assay: microbe, parasite or virus in culture; conditions: MTCC 439; remark: listed apart in the source
# Description: Synergistic antibacterial activity against Enterococcus faecalis MTCC 439 assessed as inhibition of bacterial growth incubated overnight in presence of SB5 by serial dilution based spectrophotometer
# Bacillus subtilis [56] = assay: microbe, parasite or virus in culture; conditions: MTCC 736; remark: listed apart in the source
# Description: Synergistic antibacterial activity against Bacillus subtilis MTCC 736 assessed as inhibition of bacterial growth incubated overnight in presence of LT-SB7 by serial dilution based spectrophotometer
# Salmonella typhi [57] = assay: Synergistic antibacterial activity against Salmonella typhi assessed as inhibition of bacterial growth incubated overnight in presence of LT-SB5 by serial dilution based spectrophotometer; conditions: Salmonella enterica
# Bacillus subtilis [58] = assay: microbe, parasite or virus in culture; conditions: MTCC 736; remark: listed apart in the source
# Description: Synergistic antibacterial activity against Bacillus subtilis MTCC 736 assessed as inhibition of bacterial growth incubated overnight in presence of SB9 by serial dilution based spectrophotometer
# Enterococcus faecalis [59] = assay: Antibacterial activity against Enterococcus faecalis assessed as inhibition of bacterial growth; type: functional
compound,measurement,setting,value
O=C1Nc2cc(Cl)ccc2/C1=N/CCNc1ccnc2cc(Cl)ccc12,diameter of the inhibition zone (DIZ),Staphylococcus aureus [1],8 mm
same,diameter of the inhibition zone (DIZ),Enterococcus faecalis [2],8 mm
same,MIC,Enterococcus faecalis [3],> 512 µg/mL
same,MIC,Salmonella typhi [4],> 512 µg/mL
same,Activity,Staphylococcus aureus [5],Active
same,fractional inhibitory concentration index (FICI),Pseudomonas aeruginosa [6],1.25
same,Activity,Escherichia coli [7],Active
same,diameter of the inhibition zone (DIZ),Enterococcus faecalis [8],8 mm
same,diameter of the inhibition zone (DIZ),Escherichia coli [9],9 mm
same,diameter of the inhibition zone (DIZ),Pseudomonas aeruginosa [10],9 mm
same,diameter of the inhibition zone (DIZ),Pseudomonas aeruginosa [11],9 mm
same,Activity,Escherichia coli [12],Active
same,MBC,Escherichia coli [13],> 512 µg/mL
same,MIC,Escherichia coli [14],256 µg/mL
same,diameter of the inhibition zone (DIZ),Salmonella typhi [15],7 mm
same,diameter of the inhibition zone (DIZ),Bacillus subtilis [16],10 mm
same,diameter of the inhibition zone (DIZ),Bacillus subtilis [17],11 mm
same,MIC,Staphylococcus aureus [18],> 512 µg/mL
same,diameter of the inhibition zone (DIZ),Staphylococcus aureus [19],8 mm
same,Ratio,Pseudomonas aeruginosa [20],2
same,MIC,Bacillus subtilis [21],256 µg/mL
same,Activity,Staphylococcus aureus [22],inactive
same,diameter of the inhibition zone (DIZ),Escherichia coli [23],11 mm
same,diameter of the inhibition zone (DIZ),Bacillus subtilis [24],8 mm
same,zone of inhibition at 500 µg/mL,Bacillus subtilis [25],11 mm
same,fractional inhibitory concentration index (FICI),Escherichia coli [26],0.125
same,diameter of the inhibition zone (DIZ),Enterococcus faecalis [27],8 mm
same,diameter of the inhibition zone (DIZ),Staphylococcus aureus [28],8 mm
same,zone of inhibition at 500 µg/mL,Staphylococcus aureus [29],8 mm
same,zone of inhibition at 500 µg/mL,Pseudomonas aeruginosa [30],11 mm
same,fractional inhibitory concentration index (FICI),Bacillus subtilis [31],0.75
same,Ratio,Bacillus subtilis [32],1
same,MBC,Bacillus subtilis [33],256 µg/mL
same,MBC,Pseudomonas aeruginosa [34],256 µg/mL
same,Activity,Staphylococcus aureus [35],Active
same,zone of inhibition at 500 µg/mL,Escherichia coli [36],12 mm
same,diameter of the inhibition zone (DIZ),Salmonella typhi [37],7 mm
same,diameter of the inhibition zone (DIZ),Pseudomonas aeruginosa [38],8 mm
same,MIC,Escherichia coli [39],16 µg/mL
same,MIC,Pseudomonas aeruginosa [40],128 µg/mL
same,MIC,Pseudomonas aeruginosa [41],32 µg/mL
same,MIC,Bacillus subtilis [42],64 µg/mL
same,diameter of the inhibition zone (DIZ),Escherichia coli [43],9 mm
O=C(O)c1cn(C2CC2)c2cc(N3CCNCC3)c(F)cc2c1=O [CIPROFLOXACIN],MIC,Bacillus subtilis [44],1 µg/mL
same,MIC,Enterococcus faecalis [3],0.5 µg/mL
same,MIC,Salmonella typhi [4],0.5 µg/mL
same,MIC,Bacillus subtilis [45],1 µg/mL
same,MIC,Enterococcus faecalis [46],0.125 µg/mL
same,MIC,Salmonella typhi [47],0.031 µg/mL
same,zone of inhibition at 500 µg/mL,Enterococcus faecalis [48],18 mm
same,Activity,Staphylococcus aureus [49],Active
same,MIC,Bacillus subtilis [21],1 µg/mL
same,MIC,Salmonella typhi [50],0.031 µg/mL
same,MIC,Escherichia coli [51],0.062 µg/mL
same,zone of inhibition at 500 µg/mL,Bacillus subtilis [25],22 mm
same,MIC,Enterococcus faecalis [52],0.5 µg/mL
same,zone of inhibition at 500 µg/mL,Staphylococcus aureus [29],19 mm
same,zone of inhibition at 500 µg/mL,Pseudomonas aeruginosa [30],24 mm
same,MIC,Enterococcus faecalis [53],0.125 µg/mL
same,zone of inhibition at 500 µg/mL,Salmonella typhi [54],18 mm
same,MIC,Enterococcus faecalis [55],0.5 µg/mL
same,MIC,Bacillus subtilis [56],0.25 µg/mL
same,MIC,Salmonella typhi [57],0.031 µg/mL
same,MIC,Bacillus subtilis [58],0.5 µg/mL
O=C1Nc2cc(Cl)c(F)cc2/C1=N\NC(=O)c1cc(-c2cccc(Br)c2)n[nH]1,MIC,Enterococcus faecalis [59],8 µg/mL
